In experiment [1] the test system is tubulin. The experiment is described as follows: inhibition of tubulin polymerization in vitro (turbidity at 350 nm). The experiment is classed as biochemical. The following applies: for IC50: read-out: IC50 (concentration required to inhibit tubulin polymerization by 50%), method of Example 1, average ± S.D., obtained graphically. How it is done: Anti-mitotic activity can be evaluated by testing the ability of an estradiol derivative to inhibit tubulin polymerization and microtubule assembly in vitro. Microtubule assembly is followed in a Gilford recording spectrophotometer (model 250 or […]) equipped with electronic temperature controllers. […] The 0.24 ml reaction mixtures are incubated for 15 min. at 37° C. and then chilled on ice. After addition of 10 μl 2.5 mM GTP, the reaction mixture is transferred to a cuvette at 0° C., and a baseline established. At time zero, the temperature controller of the spectrophotometer is set at 37° C. Microtubule assembly is evaluated by increased turbity at 350 nm. […] The 0.24 ml reaction mixtures were incubated for 15 min at 37° C. and chilled on ice. After addition of 10 μl of 2.5 mM GTP the reaction mixtures were transferred to cuvettes held at 0° C., and baselines were established. At time zero the temperature controller was set at 37° C. At the times indicated by the vertical dashed lines the temperature controller was set at the indicated temperatures. […] The 0.24 ml reaction mixtures were incubated for 15 min at 26° C. and chilled on ice. After addition of 10 μl of 10 mM GTP the reaction mixtures were transferred to cuvettes held at 0° C., and baselines were established. At time zero the temperature controller was set at 26° C. At the time indicated by vertical dashed line the temperature controller was set at 0° C.

Experiment [2] concerns tubulin. The experiment is described as follows: inhibition of [3H]colchicine binding to tubulin. The following applies: 1.0 μM tubulin, 5% DMSO, 10 min at 37° C.; for Percent inhibition ± S.D. of colchicine binding to tubulin: 100 μM inhibitor, 2 μM [3H]colchicine.
Protocol: Incubation was for 10 min at 37° C.
Incubation was for 10 min at 37° C. […] S.D., standard deviation.
For experiment [3], the system named is chick embryo chorioallantoic membrane new blood vessel cells (angiogenesis). Put plainly: chick embryo chorioallantoic membrane (CAM) assay. The experiment is classed as in vivo. The following applies: 100 mg disk (methylcellulose disc) on CAM, after 48 hours. How it is done: Anti-mitotic activity is evaluated in situ by testing the ability of an improved estradiol derivative to inhibit the proliferation of new blood vessel cells (angiogenesis). A suitable assay is the chick embryo chorioallantoic membrane (CAM) assay described by Crum et al. Science 230:1375 (1985). See also, U.S. Pat. No. 5,001,116, hereby incorporated by reference, which describes the CAM assay. Briefly, fertilized chick embryos are removed from their shell on day 3 or 4, and a methylcellulose disc containing the drug is implanted on the chorioallantoic membrane. The embryos are examined 48 hours later and, if a clear avascular zone appears around the methylcellulose disc, the diameter of that zone is measured.

We go through 13 compounds from patent US6723858B2, “Estrogenic compounds as anti-mitotic agents” (The Children's Medical Center Corporation, priority 1993, dated 2004).

Each structure is given as a SMILES string.

For `C[C@]12CC[C@@H]3c4cc(Br)c(O)cc4CC[C@H]3[C@@H]1CC[C@@H]2O` [2-Bromoestradiol], in the experiment on tubulin [1], the IC50 turned out to be 4.5 ± 0.6 µM.

For `C[C@]12CC[C@@H]3c4cc(F)c(O)cc4CC[C@H]3[C@@H]1CC[C@@H]2O` [2-Fluoroestradiol], the IC50 with tubulin [1] came out at 27 ± 6 µM. On the same count and under the same terms, to `C#C[C@]1(O)CC[C@H]2[C@@H]3CCc4cc(O)c(OC)cc4[C@H]3CC[C@@]21C` [2-Methoxy-17-ethynylestradiol] belongs > 40 µM; to `COc1cc2c(cc1OC)C1CCC3(C)C(O)CCC3C1CC2` (stereo not shown) [2-Methoxyestradiol-3-O-methyl ether], > 40 µM.

Consider `COc1cc2c(cc1O)CCC1C2CCC2(C)C(O)CCC12` (stereo not shown) [2-Methoxyestradiol], for which the “inhibition of tubulin polymerization (FIG. 1)” value in the experiment on tubulin [1] (20-75 μM at 37° C. (A) or 1.0-4.0 μM at 26° C. (B)) was “inhibition of tubulin polymerization”. The IC50 in the experiment with tubulin [1] was found to be 1.9 ± 0.2 µM. Besides, the “inhibition of colchicine binding to tubulin (FIG. 2)” value in the experiment on tubulin [2] (5 μM [3H]colchicine) is on record as “inhibits colchicine binding to tubulin”. Moreover, the “Percent inhibition ± S.D. of colchicine binding to tubulin” value in the experiment on tubulin [2] turned out to be 82 ± 2%. In addition, in experiment [3], the “inhibition of cell mitosis and growth of new blood vessels” value was “inhibit cell mitosis and the growth of new blood vessels”. For `COc1cc2c(cc1O)CC[C@@H]1[C@@H]2CC[C@]2(C)[C@@H](O)[C@H](O)C[C@@H]12` [2-Methoxyestriol], the IC50 in the experiment on tubulin [1] is > 40 µM.

Take `COc1cc2c(cc1O)CC[C@@H]1[C@@H]2CC[C@]2(C)C(=O)CC[C@@H]12` [2-Methoxyestrone]: the IC50 in the experiment on tubulin [1] is 8.8 ± 1 µM. Moreover, the “Percent inhibition ± S.D. of colchicine binding to tubulin” value with tubulin [2] is reported as 57 ± 6%. As for `COc1ccc2c(c1OC)CCC1C2CCC2(C)C(O)CCC12` (stereo not shown) [4-Methoxyestradiol-3-O-methyl ether], the IC50 in the experiment with tubulin [1] was > 40 µM. On the same count and under the same terms, to `COc1c(O)ccc2c1CCC1C2CCC2(C)C(O)CCC12` (stereo not shown) [4-Methoxyestradiol] belongs > 40 µM. For `C#C[C@]1(O)CC[C@H]2[C@@H]3CCc4cc(O)ccc4[C@H]3CC[C@@]21C` [17-Ethynylestradiol, reference compound], in the experiment on tubulin [1], the IC50 stood at 10 ± 2 µM. In the experiment with tubulin [2], the “Percent inhibition ± S.D. of colchicine binding to tubulin” value turned out to be 50 ± 7%.

As for `COc1ccc(CCc2cc(OC)c(OC)c(OC)c2)cc1O` [Dihydrocombretastatin A-4, reference compound], the IC50 with tubulin [1] is 0.63 ± 0.03 µM.

For the compound `COc1ccc2c(c1)CC[C@@H]1[C@@H]2CC[C@]2(C)[C@@H](O)CC[C@@H]12` [Estradiol-3-O-methyl ether], the IC50 in the experiment with tubulin [1] was > 40 µM. Still for that read-out and setting: the same measure for `C[C@]12CC[C@@H]3c4ccc(O)cc4CC[C@H]3[C@@H]1C[C@@H](O)[C@@H]2O` [Estriol, reference compound]: > 40 µM.
